Our source for the IC50 values is patent US20260207602A1, “EGFR INHIBITORS” (Blueprint Medicines Corporation, priority 2022, published 2026).

In general, IC50 refers to the concentration needed to halve the response being measured.

For one experiment, the target named is T1, EGFR L858R (Homo sapiens, UniProt P00533, L858R).
T1 construct: purchased SignalChem E10-122BG
In words: Biochemical EGFR inhibition assay (Caliper mobility shift), EGFR L858R. To be noted: biochemical Caliper mobility shift assay, EGFR L858R enzyme; read-out: Enz EGFR L858R IC50. The method, boiled down:
(§1)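 Apparent IC50 values come from Caliper electrophoretic separation of phosphorylated and unphosphorylated 5-FAM peptide (2.5 μM). ATP was either 1.0 mM or at Km; HEPES pH 7.5 buffer with MgCl2, DTT, 1% DMSO. Reactions ran at 25 °C until 10–20% phosphorylated, then EDTA quench.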

The target of the next experiment is T2, EGFR (d746-750) (Homo sapiens, UniProt P00533, DEL746-750).
T2 construct: purchased SignalChem E10-122JG
T2 sequence (P00533 with tags, fused parts or gaps DEL746-750 limits assumed): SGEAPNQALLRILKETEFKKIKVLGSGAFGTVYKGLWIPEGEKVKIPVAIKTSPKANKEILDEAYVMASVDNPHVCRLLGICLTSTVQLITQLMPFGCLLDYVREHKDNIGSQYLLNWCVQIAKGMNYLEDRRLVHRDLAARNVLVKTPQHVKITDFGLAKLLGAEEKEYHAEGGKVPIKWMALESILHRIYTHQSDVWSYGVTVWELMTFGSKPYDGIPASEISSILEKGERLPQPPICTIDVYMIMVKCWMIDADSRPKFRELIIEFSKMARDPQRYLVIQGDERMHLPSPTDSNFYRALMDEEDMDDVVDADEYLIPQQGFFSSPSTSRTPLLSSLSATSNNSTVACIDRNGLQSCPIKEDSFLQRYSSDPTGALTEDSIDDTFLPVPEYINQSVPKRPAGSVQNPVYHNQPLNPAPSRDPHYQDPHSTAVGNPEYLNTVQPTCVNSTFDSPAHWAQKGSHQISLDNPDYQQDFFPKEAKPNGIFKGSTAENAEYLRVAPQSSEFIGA
Put plainly: Biochemical EGFR inhibition assay (Caliper mobility shift), EGFR (d746-750). To be noted: biochemical Caliper mobility shift assay, EGFR Exon 19-del enzyme; read-out: Enz EGFR Exon 19-del IC50. The method, boiled down: as §1

Experiment [1] concerns the target intracellular phosphorylation of EGFR (Tyr1068) in PC-9 cells (Homo sapiens, UniProt P00533, DEL746-750). In words: PC-9 pEGFR AlphaLISA assay. To be noted: 4 hours incubation, read-out: Phos EGFR PC9 IC50. Format: cell-based. The procedure, abridged:
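PC-9 cells (EGFR del746-750) in phenol-free DMEM/10% FBS, adhered overnight, then exposed to 10-point 4-fold compound dilutions for 4 h at 37 °C. Lysates assayed for pEGFR Tyr1068 by AlphaLISA SureFire Ultra; IC50 from percent pEGFR inhibition vs log concentration.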
For orientation: Alpha assays give light when donor and acceptor beads are brought close together.

T1 sequence (P00533 25-1210 L858R): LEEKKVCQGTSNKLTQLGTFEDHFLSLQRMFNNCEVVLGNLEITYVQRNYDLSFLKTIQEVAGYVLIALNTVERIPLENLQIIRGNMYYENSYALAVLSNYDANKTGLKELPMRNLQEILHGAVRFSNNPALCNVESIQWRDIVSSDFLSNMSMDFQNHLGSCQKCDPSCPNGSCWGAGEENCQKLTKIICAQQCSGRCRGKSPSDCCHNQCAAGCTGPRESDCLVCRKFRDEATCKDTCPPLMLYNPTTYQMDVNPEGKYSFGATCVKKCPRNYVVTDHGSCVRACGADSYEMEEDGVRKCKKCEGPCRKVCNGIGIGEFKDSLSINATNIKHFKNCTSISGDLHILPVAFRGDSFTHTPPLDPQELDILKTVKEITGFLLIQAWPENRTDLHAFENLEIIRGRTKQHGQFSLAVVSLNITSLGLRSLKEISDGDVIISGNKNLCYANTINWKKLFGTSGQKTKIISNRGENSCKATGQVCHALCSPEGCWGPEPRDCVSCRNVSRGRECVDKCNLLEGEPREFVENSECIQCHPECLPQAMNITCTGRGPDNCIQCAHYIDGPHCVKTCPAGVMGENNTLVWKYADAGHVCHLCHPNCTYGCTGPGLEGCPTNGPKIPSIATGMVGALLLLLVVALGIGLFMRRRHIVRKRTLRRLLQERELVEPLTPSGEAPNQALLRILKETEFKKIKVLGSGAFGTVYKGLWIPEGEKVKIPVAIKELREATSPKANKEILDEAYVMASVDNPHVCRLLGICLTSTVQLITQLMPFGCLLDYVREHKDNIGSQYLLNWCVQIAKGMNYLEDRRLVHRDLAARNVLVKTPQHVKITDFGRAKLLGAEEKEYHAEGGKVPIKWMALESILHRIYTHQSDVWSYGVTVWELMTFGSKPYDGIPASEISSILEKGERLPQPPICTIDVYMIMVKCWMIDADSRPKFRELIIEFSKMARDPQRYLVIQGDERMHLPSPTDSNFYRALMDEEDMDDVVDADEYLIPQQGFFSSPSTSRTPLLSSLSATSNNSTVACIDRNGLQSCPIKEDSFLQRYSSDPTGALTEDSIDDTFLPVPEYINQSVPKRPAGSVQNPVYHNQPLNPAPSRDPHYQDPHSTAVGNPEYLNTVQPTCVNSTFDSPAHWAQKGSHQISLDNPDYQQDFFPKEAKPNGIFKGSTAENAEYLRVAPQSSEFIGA
Sequence of intracellular phosphorylation of EGFR (Tyr1068) in PC-9 cells (P00533 with tags, fused parts or gaps DEL746-750): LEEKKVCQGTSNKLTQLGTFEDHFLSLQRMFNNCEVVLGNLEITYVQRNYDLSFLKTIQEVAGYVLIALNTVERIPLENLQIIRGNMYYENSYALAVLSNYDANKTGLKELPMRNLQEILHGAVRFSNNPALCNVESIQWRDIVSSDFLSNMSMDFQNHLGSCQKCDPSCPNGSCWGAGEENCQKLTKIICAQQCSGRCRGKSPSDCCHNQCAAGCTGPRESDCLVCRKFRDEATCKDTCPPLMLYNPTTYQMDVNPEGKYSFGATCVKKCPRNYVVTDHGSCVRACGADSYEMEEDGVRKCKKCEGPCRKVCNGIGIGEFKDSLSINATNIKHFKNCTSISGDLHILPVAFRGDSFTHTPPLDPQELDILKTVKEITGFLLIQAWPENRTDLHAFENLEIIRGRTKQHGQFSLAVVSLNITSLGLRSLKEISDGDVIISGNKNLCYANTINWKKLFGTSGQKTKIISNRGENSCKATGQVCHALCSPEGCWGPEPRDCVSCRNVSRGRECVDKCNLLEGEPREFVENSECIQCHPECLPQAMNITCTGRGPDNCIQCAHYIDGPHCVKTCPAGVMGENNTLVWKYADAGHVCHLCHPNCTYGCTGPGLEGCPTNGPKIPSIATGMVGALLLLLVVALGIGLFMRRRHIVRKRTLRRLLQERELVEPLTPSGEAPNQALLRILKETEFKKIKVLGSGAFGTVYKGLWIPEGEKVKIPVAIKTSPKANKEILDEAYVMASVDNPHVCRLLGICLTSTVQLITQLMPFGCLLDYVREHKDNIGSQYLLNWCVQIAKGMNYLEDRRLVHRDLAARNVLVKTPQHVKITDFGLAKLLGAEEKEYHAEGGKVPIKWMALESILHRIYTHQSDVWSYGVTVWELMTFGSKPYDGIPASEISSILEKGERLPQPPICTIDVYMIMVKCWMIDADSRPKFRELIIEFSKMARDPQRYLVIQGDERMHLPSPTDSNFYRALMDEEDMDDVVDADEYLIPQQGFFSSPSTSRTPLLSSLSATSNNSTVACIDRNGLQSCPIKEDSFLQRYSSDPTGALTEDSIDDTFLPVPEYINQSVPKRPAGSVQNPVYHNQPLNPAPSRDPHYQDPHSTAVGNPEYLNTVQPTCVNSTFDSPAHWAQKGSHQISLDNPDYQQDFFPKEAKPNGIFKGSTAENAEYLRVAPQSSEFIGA

As to `COC[C@@H](C)Oc1cc(N2CCN(C)C[C@H]2C)cc2ncnc(Nc3ccc4ncsc4c3)c12` (single isomer, unassigned) [Example 212], the IC50 at EGFR L858R was 10.1 to 50 nM; at EGFR (d746-750), 10.1 to 50 nM; in experiment [1], more than 50.1 nM.
Turning to `C[C@@H](Oc1cc(-c2cnn(C)c2)cc2ncnc(Nc3ccc4ncsc4c3F)c12)C(=O)N(C)C` (single isomer, unassigned) [Example 279], the IC50 (on EGFR L858R; at EGFR (d746-750); in experiment [1]) was not above 10 nM throughout.
Regarding `C[C@H](Oc1cc(-c2cnn(C)c2)cc2ncnc(Nc3ccc4ncsc4c3F)c12)C(=O)N1CCOCC1` (single isomer, unassigned) [Example 282], the IC50 (at EGFR L858R; at EGFR (d746-750); in experiment [1]) was not above 10 nM in each case.
Take `COc1nn(C)cc1-c1cc(O[C@@H](C)C(=O)N(C)C)c2c(Nc3ccc4ncsc4c3F)ncnc2c1` (single isomer, unassigned) [Example 287]: the IC50 (at EGFR L858R; on EGFR (d746-750); in experiment [1]) was not above 10 nM throughout.
`C[C@H](CO)Oc1cc(-c2cnn(C)c2)cc2ncnc(Nc3ccc4ncsc4c3F)c12` (single isomer, unassigned) [Example 289]: the IC50 (on EGFR L858R; at EGFR (d746-750); in experiment [1]) was not above 10 nM throughout.
`C[C@@H](Oc1cc(-c2cnn(C(C)(C)CO)c2)cc2ncnc(Nc3ccc4ncsc4c3)c12)C1COC1` (single isomer, unassigned) [Example 291]: the IC50 (on EGFR L858R; at EGFR (d746-750); in experiment [1]) was not above 10 nM in each case.
With `C[C@H](CO)Oc1cc(N2CCN(C)CC2)cc2ncnc(Nc3ccc4ncsc4c3)c12` (single isomer, unassigned) [Example 293], the IC50 is not above 10 nM on EGFR L858R, not above 10 nM on EGFR (d746-750) and 10.1 to 50 nM in experiment [1].
As to `C[C@H](CO)Oc1cc(N2CCN(C)CC2)cc2ncnc(Nc3ccc4ncsc4c3F)c12` (single isomer, unassigned) [Example 295], the half-maximal inhibitory concentration (IC50) at EGFR L858R is 10.1 to 50 nM; at EGFR (d746-750) it was not above 10 nM; in experiment [1], not above 10 nM.
As for `C[C@H](CO)Oc1cc(N2CCN(C)CC2)cc2ncnc(Nc3ccc4ncsc4c3F)c12` (single isomer, unassigned) [Example 296], the IC50 (at EGFR L858R; at EGFR (d746-750); in experiment [1]) was not above 10 nM each time.
As to `C[C@H](CO)n1cc(-c2cc(O[C@H](C)C3COC3)c3c(Nc4ccc5ncsc5c4)ncnc3c2)cn1` (single isomer, unassigned) [Example 297], the IC50 (on EGFR L858R; on EGFR (d746-750); in experiment [1]) was not above 10 nM throughout.
Turning to `C[C@@H](Oc1cc(N2CCN(C)[C@@H]3C[C@@H]32)cc2ncnc(Nc3ccc4ncsc4c3)c12)C1COC1` (single isomer, unassigned) [Example 299], the IC50 at EGFR L858R is 10.1 to 50 nM; on EGFR (d746-750) it was not above 10 nM; in experiment [1], 10.1 to 50 nM.
Consider `C[C@H]1[C@H](Oc2cc(-c3cnn(C)c3)cc3ncnc(Nc4ccc5ncsc5c4)c23)CN1C` (single isomer, unassigned) [Example 321], for which the results for the IC50 (at EGFR L858R; on EGFR (d746-750); in experiment [1]) were 10.1 to 50 nM, not above 10 nM and 10.1 to 50 nM, respectively.
As for `CN1CC[C@@H](Nc2cc3c(Nc4ccc5ncsc5c4)ncnc3cc2-c2cnn(C)c2)[C@H](F)C1` (single isomer, unassigned) [Example 325], the IC50 was 10.1 to 50 nM on EGFR L858R, not above 10 nM at EGFR (d746-750) and more than 50.1 nM in experiment [1].
On the same counts, the results for `CN1CC[C@@H](Nc2cc3c(Nc4ccc5ncsc5c4)ncnc3cc2-c2cnn(C)c2)[C@H](F)C1` (single isomer, unassigned) [Example 326] are not above 10 nM, not above 10 nM and not above 10 nM.
On to `CN1CC[C@@H](Nc2cc3c(Nc4ccc5ncsc5c4)ncnc3cc2-c2ccn(C)n2)[C@H](F)C1` (single isomer, unassigned) [Example 327], for which the IC50 (on EGFR L858R; at EGFR (d746-750); in experiment [1]) was not above 10 nM throughout.
Take `CN1C[C@H](F)C[C@@H](Oc2cc(-c3cnn(C)c3)cc3ncnc(Nc4ccc5ncsc5c4)c23)C1` (single isomer, unassigned) [Example 333]: the IC50 on EGFR L858R is not above 10 nM; at EGFR (d746-750), not above 10 nM; in experiment [1], 10.1 to 50 nM.
As for `Cn1cc(-c2cc(O[C@@H]3CNC[C@H](F)C3)c3c(Nc4ccc5ncsc5c4)ncnc3c2)cn1` (single isomer, unassigned) [Example 334], the IC50 at EGFR L858R was not above 10 nM; on EGFR (d746-750), not above 10 nM; in experiment [1], 10.1 to 50 nM.
For the molecule `Cn1cc(-c2cc(O[C@@H]3CNC[C@H](F)C3)c3c(Nc4ccc5ncsc5c4)ncnc3c2)cn1` (single isomer, unassigned) [Example 335], the IC50 (on EGFR L858R; on EGFR (d746-750); in experiment [1]) was not above 10 nM in each case.
For `CN1C[C@H](F)C[C@H](Oc2cc(-c3cnn(C)c3)cc3ncnc(Nc4ccc5ncsc5c4)c23)C1` (single isomer, unassigned) [Example 336], the IC50 (on EGFR L858R; on EGFR (d746-750); in experiment [1]) was not above 10 nM in each case.
As for `CN1CC[C@@H](Oc2cc(-c3cnn(C)c3)cc3ncnc(Nc4ccc5ncsc5c4)c23)[C@@H](F)C1` (single isomer, unassigned) [Example 340], the IC50 (on EGFR L858R; at EGFR (d746-750); in experiment [1]) was not above 10 nM each time.
On to `CN1CC[C@H](Oc2cc(-c3cnn(C)c3)cc3ncnc(Nc4ccc5ncsc5c4)c23)[C@@H](F)C1` (single isomer, unassigned) [Example 344], for which the IC50 (at EGFR L858R; at EGFR (d746-750); in experiment [1]) was not above 10 nM in each case.
On to `Cn1cc(-c2cc(O[C@H]3CCNC[C@@H]3F)c3c(Nc4ccc5ncsc5c4)ncnc3c2)cn1` (single isomer, unassigned) [Example 346], for which the IC50 (at EGFR L858R; at EGFR (d746-750); in experiment [1]) was not above 10 nM throughout.
With `CN1CCC2(COC2)[C@H](Oc2cc(-c3cnn(C)c3)cc3ncnc(Nc4ccc5ncsc5c4)c23)C1` (single isomer, unassigned) [Example 353], the IC50 (at EGFR L858R; at EGFR (d746-750); in experiment [1]) was not above 10 nM in each case.
Turning to `CN1CCC2(COC2)[C@H](Oc2cc(-c3cnn(C)c3)cc3ncnc(Nc4ccc5ncsc5c4)c23)C1` (single isomer, unassigned) [Example 354], the IC50 at EGFR L858R was 10.1 to 50 nM; at EGFR (d746-750), not above 10 nM; in experiment [1], 10.1 to 50 nM.
For the molecule `COc1nn(C)cc1-c1cc(O[C@@H]2CCN(C)C[C@H]2F)c2c(Nc3ccc4ncsc4c3)ncnc2c1` (single isomer, unassigned) [Example 358], the IC50 (on EGFR L858R; at EGFR (d746-750); in experiment [1]) was not above 10 nM throughout.
In the case of `COc1nn(C)cc1-c1cc(O[C@@H]2CCN(C)C[C@H]2F)c2c(Nc3ccc4ncsc4c3)ncnc2c1` (single isomer, unassigned) [Example 359], the values for the IC50 (on EGFR L858R; on EGFR (d746-750); in experiment [1]) were not above 10 nM, not above 10 nM and 10.1 to 50 nM, respectively.
For the molecule `COc1nn(C)cc1-c1cc(O[C@H]2CCNC[C@@H]2F)c2c(Nc3ccc4ncsc4c3)ncnc2c1` (single isomer, unassigned) [Example 360], the IC50 (on EGFR L858R; at EGFR (d746-750); in experiment [1]) was not above 10 nM each time.
In the case of `CN1CC[C@H](Oc2cc(-c3cn(C)nc3OC(F)F)cc3ncnc(Nc4ccc5ncsc5c4)c23)[C@@H](F)C1` (single isomer, unassigned) [Example 368], the IC50 on EGFR L858R is not above 10 nM; at EGFR (d746-750) it was not above 10 nM; in experiment [1], 10.1 to 50 nM.
In the case of `CN1CC[C@H](Oc2cc(-c3cn(C)nc3OC(F)F)cc3ncnc(Nc4ccc5ncsc5c4)c23)[C@@H](F)C1` (single isomer, unassigned) [Example 369], the IC50 at EGFR L858R is 10.1 to 50 nM; at EGFR (d746-750), not above 10 nM; in experiment [1] it was 10.1 to 50 nM.
Regarding `COc1nn(C)cc1-c1cc(O[C@H]2CN(C)C[C@H]2F)c2c(Nc3ccc4ncsc4c3)ncnc2c1` (single isomer, unassigned) [Example 373], the concentration for half-maximal inhibition (IC50) (on EGFR L858R; at EGFR (d746-750); in experiment [1]) was not above 10 nM in each case.
As to `COc1nn(C)cc1-c1cc(O[C@H]2CN(C)C[C@H]2F)c2c(Nc3ccc4ncsc4c3)ncnc2c1` (single isomer, unassigned) [Example 374], the IC50 is not above 10 nM at EGFR L858R, not above 10 nM at EGFR (d746-750) and 10.1 to 50 nM in experiment [1].
As for `COc1nn(C)cc1-c1cc(O[C@H]2CN(C)C[C@@H]2F)c2c(Nc3ccc4ncsc4c3)ncnc2c1` (single isomer, unassigned) [Example 377], the IC50 (at EGFR L858R; on EGFR (d746-750); in experiment [1]) was 10.1 to 50 nM in each case.
`COc1nn(C)cc1-c1cc(O[C@H]2CN(C)C[C@@H]2F)c2c(Nc3ccc4ncsc4c3)ncnc2c1` (single isomer, unassigned) [Example 378]: the IC50 (on EGFR L858R; at EGFR (d746-750); in experiment [1]) was not above 10 nM in each case.
